14 molecules from patent publication US20250270209A1 (INTERLINE THERAPEUTICS, INC., priority 2022, published 2025) can be followed below.

One test deals with LRRK2 wild type enzyme (Homo sapiens, UniProt Q5S007). The experiment in a line: Biochemical Assay: LRRK2 TR-FRET (LanthaScreen) kinase assay with LRRKtide substrate. To be noted: LRRK2 Inhibition, Table 8. How it is done:
10 mM compound solution was prepared in DMSO. An 11-point, 3-fold dilution was performed, with highest concentration at 10 μM. A 10 mM compound DMSO solution was added to Labcyte LDV plate and the compound concentration of source plate was 10 mM. The 1st compound concentration of Inter plate(Labcyte 384 well PP plate) was 4.938×10^−1 mM which was prepared by transferring 1.5 μL of 10 mM compound from source plate to 28.9 μL DMSO. The 2nd compound concentration of Inter plate was 1.829×10^−2 mM which was prepared by transferring 60 nL of 10 mM compound from source plate to 32.7 μL DMSO. The 3rd compound concentration of Inter plate was 6.774×10^−4 mM which was prepared by transferring 2.5 nL of 10 mM compound from source plate to 36.9 μL DMSO. 100 nL of reference compound was dispensed in column 1 for low control wells and 100 nL of DMSO in column 24 for high control wells. Compounds were dispensed to column 2 to 23 of assay plate and backfilled with DMSO to a total volume of 100 nL.
A 2X LRRK2 enzyme solution (final concentration 3 nM) was prepared in assay buffer (Tris-HCl pH8.0:50 mM, MgCl2: 5 mM, EDTA: 1 mM, Brij-35:0.01%, 2 mM DTT). A 2× substrate solution was prepared: LRRK2 tide substrate (final concentration 400 nM) and ATP (final concentration 25 μM) in assay buffer. 5 μL 2× LRRK2 enzyme solution was dispensed to each well in assay plate by Multidrop. Assay plate was spun at 1,000 rpm for 1 min and incubated for 15 min at 23° C. 5 μL 2× ATP/LRRKtide solution was dispensed to each well in assay plate by Multidrop. Assay plate was spun at 1,000 rpm for 1 min and incubated for 120 min at 23° C.
(§1) A 2× detection solution was prepared: Tb-pERM (pLRRKtide) antibody (final concentration 0.25 nM) and EDTA (final concentration 10 mM) in TR-FRET dilution buffer. 10 μL 2× detection solution was dispensed to each well in assay plate to stop kinase reaction by Multidrop. Assay plate was spun at 1,000 rpm for 1 min and incubate for 30 min at 23° C. Assay plate was then read on Envision configured for LanthaScreen® TR-FRET. pS935 LRRK2 Cell Assay

Test [1] addresses T1, wild type LRRK2 overexpressed in recombinant HEK-293T cells (Homo sapiens, UniProt Q5S007).
T1 construct: host or cells: HEK293T (transient transfection with pCMV-LRRK2 WT plasmid)
The test can be described thus: pS935 LRRK2 Cell Assay (HTRF, phospho-LRRK2 Ser935). The format is cell-based. Conditions: LRRK2 Inhibition, Table 8, 2 hours compound incubation. As for the experimental part:
as §1
The following protocol describes an in-vitro method for measuring phosphorylation at Ser935 on wild type LRRK2 overexpressed in recombinant HEK-293T cells. The method is based on HTRF technology, which combines Fluorescence Resonance Energy Transfer (FRET) with Time-Resolved measurement (TR). Phospho-LRRK2 (Ser935) is detected in a sandwich assay format using two different specific antibodies, one labelled with Eu3+-Cryptate (donor) and the second with d2(acceptor).When the fluorophores are in close proximity, excitation of the donor with a light source (flash lamp) stimulates FRET to the acceptor, which in turn fluoresces at a specific wavelength (665 nm). The fluorescence emission at 615 nm from the donor is also measured to allow ratiometric reduction of data. The specific signal is proportional to phospho-LRRK2 (Ser935).
Plasmid transient transfection: DMEM medium, FBS, DPBS, Trans-IT, OPTI-MEM reagents were allowed to warm to room temperature. HEK293T cells were cultured in DMEM +10% FBS complete medium in T150 flasks till around 80% confluency before transfection. Then cells were washed with 10 mL PBS and detached with 3 mL 0.25% typinsin. 30×10E6 HEK293T cells were seeded in DMEM +10% FBS complete medium to a 15 cm dish.
DNA, TransIT-LT1, OPTI-MEM complex were prepared: […] OPTI-MEM was added to a 15 mL cone tube, then […] plasmid was added to OPTI-MEM and mixed, followed by addition of 60 μL TransIT-LT1 to the plasmid OPTI-MEM mixture and mixing. The resulting mixture was incubated for 15 minutes.
The above plasmid, DNA and OPTI-MEM mixture was added dropwise to the 15 cm dish, ensuring the drops were evenly distributed. The culture dish was gently rocked back and forth and from left to right to evenly distribute the complex. The tranfected dish was incubated for 24 hours at 37° C., and 5% CO2.
Transfected HEK293T was collected in the 15 cm dish. Media was aspirated from tissue culture dish, and washed by dispensing 10 mL 1× DPBS into 15 cm dish. 1× DPBS was aspirated and 3 mL trypsin was dispensed to 15 cm dish. The dish was incubated with trypsin at room temperature for 3 min until the cells were detached. 10 mL of DMEM +10% FBS medium were added to 15 cm dish and triturated to ensure homogenous cell suspensions.
Homogenous cell suspensions were transferred to a 50 mL tube, and centrifuged for 5 minutes at 1,000 rmp/min. The supernatant was aspirated and resuspended with 20 mL complete medium. 1 mL of cell suspension was transferred for cell counting. The cell suspension was diluted to 2× 10E5 cells/ml. 50 μL cell suspensions were added to a 384-well plate. The plate was quick spun at 800 rpm for 1 minute, then incubate overnight at 37° C., 5% CO2.
Compound dispensing: compound was diluted (10 mM DMSO stock solution) and added to assay plate (top concentration: 10 μM, 3 fold serial dilution, 9 doses) with duplicates by Tecan liquid handler. The DMSO concentration of each well was normalized to 0.2%. Plates were quick spun at 1,000 rpm for 1 minute. Plates were incubated at 37° C., 5% CO2 for 2 hours.
1× lysis buffer solution supplemented with blocking reagent was prepared (e.g. 1 mL lysis buffer 4X+3 mL water+40 μL stock blocking reagent 100X). Antibodies working solution was prepared by diluting 40-fold d2 and Cryptate antibodies with detection buffer(e.g. 1520 μL detection buffer+40 μL d2-antibody stock solution+[…] Cryptate-antibody stock solution).
After 2 hours incubation, cell plates were taken out from the incubator. […]

The structures appear in SMILES notation.

T1 sequence (Q5S007 whole entry): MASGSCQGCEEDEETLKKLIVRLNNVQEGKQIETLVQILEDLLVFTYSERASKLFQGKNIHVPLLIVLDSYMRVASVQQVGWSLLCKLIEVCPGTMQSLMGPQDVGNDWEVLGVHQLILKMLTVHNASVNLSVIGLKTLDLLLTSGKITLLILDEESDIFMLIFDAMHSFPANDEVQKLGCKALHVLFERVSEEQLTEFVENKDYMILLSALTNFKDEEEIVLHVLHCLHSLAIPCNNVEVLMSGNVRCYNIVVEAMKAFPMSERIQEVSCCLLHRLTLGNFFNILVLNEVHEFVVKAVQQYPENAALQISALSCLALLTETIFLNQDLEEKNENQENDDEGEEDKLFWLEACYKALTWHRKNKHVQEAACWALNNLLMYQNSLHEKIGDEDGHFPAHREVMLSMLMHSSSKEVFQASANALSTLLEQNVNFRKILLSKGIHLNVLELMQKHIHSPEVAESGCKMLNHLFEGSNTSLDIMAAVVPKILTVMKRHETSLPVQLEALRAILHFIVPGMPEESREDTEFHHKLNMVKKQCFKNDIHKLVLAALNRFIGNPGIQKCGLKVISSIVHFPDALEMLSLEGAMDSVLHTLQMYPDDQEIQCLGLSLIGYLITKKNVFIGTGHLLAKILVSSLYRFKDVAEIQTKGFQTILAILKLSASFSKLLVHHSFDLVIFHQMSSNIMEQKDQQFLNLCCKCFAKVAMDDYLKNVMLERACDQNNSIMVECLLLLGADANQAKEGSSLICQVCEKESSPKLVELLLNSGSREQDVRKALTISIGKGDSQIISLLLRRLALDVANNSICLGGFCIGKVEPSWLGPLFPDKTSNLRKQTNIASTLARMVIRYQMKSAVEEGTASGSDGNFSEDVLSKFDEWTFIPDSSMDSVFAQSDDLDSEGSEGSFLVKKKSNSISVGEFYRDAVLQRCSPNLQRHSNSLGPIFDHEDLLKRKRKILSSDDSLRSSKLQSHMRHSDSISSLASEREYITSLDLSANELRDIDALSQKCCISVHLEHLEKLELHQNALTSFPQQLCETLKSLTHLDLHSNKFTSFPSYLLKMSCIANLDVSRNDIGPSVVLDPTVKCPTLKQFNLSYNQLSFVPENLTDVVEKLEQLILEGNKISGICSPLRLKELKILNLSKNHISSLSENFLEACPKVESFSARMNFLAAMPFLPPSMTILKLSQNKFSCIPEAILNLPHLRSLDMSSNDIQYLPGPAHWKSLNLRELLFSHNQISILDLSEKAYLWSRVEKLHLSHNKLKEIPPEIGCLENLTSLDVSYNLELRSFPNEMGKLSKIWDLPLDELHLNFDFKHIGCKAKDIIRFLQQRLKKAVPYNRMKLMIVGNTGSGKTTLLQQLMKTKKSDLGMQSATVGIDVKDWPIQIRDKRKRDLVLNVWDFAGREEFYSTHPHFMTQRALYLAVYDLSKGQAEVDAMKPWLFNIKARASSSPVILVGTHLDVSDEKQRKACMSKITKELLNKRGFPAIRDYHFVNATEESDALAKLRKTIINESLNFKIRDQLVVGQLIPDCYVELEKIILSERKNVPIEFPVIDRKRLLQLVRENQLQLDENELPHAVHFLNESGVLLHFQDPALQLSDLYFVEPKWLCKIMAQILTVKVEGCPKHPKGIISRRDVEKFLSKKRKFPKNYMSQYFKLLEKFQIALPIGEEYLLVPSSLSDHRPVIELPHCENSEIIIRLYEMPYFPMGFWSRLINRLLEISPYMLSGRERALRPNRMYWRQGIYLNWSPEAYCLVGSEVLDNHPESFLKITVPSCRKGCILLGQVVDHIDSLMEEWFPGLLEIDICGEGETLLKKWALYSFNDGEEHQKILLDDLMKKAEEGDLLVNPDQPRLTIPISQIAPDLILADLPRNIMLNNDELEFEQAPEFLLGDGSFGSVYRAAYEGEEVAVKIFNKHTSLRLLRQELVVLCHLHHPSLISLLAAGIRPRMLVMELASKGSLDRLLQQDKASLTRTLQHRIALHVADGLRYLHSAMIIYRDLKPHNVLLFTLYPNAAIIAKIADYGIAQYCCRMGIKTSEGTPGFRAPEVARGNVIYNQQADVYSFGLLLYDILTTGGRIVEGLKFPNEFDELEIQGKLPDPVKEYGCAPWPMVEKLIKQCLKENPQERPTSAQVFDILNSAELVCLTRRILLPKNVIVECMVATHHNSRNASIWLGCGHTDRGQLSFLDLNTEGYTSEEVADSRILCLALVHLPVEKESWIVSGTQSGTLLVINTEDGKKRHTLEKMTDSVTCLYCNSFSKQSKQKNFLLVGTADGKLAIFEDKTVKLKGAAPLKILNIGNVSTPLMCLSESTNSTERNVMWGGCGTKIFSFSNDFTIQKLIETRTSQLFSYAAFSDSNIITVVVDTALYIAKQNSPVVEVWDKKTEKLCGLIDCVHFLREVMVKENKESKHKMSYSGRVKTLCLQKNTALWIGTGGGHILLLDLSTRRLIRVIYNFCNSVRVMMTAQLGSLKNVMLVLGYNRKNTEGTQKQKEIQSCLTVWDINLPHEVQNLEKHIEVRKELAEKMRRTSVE
Chain of LRRK2 wild type enzyme (Q5S007 whole entry): as above

As to `Cc1ccnc(C)c1NC(=O)Cc1nc2cnc3ccc(C#N)cc3c2n1[C@@H]1CCO[C@H](C)C1` [Compound 256, N-(2,4-dimethyl-3-pyridyl){3-[(2R,4R)-2-methyltetrahydro-2H-pyran-4-yl]-12-cyano-3,5,8-triazatricyclo[7.4.0.0^2,6]trideca-1,4,6,8,10,12-hexaen-4-yl}acetamide], the values for the IC50 (at LRRK2 wild type enzyme; in test [1]) were 0.485 nM and 15.1 nM, respectively.

In the case of `C[C@@H]1C[C@H](n2c(CC(=O)N[C@H](C)C3CC3)nc3cnc4ccc(C#N)cc4c32)CCO1` [Compound 7, 2-{8-cyano-1-[(2R,4R)-2-methyloxan-4-yl]-1H-imidazo[4,5-c]quinolin-2-yl}-N-[(1R)-1-cyclopropylethyl]acetamide], the figures for the half-inhibitory concentration (IC50) (against LRRK2 wild type enzyme; in test [1]) were 0.794 nM and 47.2 nM, respectively.

As to `Cc1nc(C)c(NC(=O)Cc2nc3cnc4ccc(C#N)cc4c3n2[C@@H]2CCO[C@H](C)C2)c(C)n1` [Compound 253, N-(2,4,6-trimethyl-5-pyrimidinyl){3-[(2R,4R)-2-methyltetrahydro-2H-pyran-4-yl]-12-cyano-3,5,8-triazatricyclo[7.4.0.0^2,6]trideca-1,4,6,8,10,12-hexaen-4-yl}acetamide], the IC50 at LRRK2 wild type enzyme came out at 0.538 nM; in test [1], 25.8 nM.

For the molecule `COc1c(NC(=O)Cc2nc3cnc4ccc(C#N)cc4c3n2[C@@H]2CCO[C@H](C)C2)cnn1C` [Compound 224, N-(5-methoxy-1-methyl-4-pyrazolyl){3-[(2R,4R)-2-methyltetrahydro-2H-pyran-4-yl]-12-cyano-3,5,8-triazatricyclo[7.4.0.0^2,6]trideca-1,4,6,8,10,12-hexaen-4-yl}acetamide], the IC50 against LRRK2 wild type enzyme came to 1.42 nM; in test [1], 87.9 nM.

For the molecule `C[C@@H]1C[C@H](n2c(CC(=O)N[C@@H]3C[C@H]3F)nc3cnc4ccc(C#N)cc4c32)CCO1` [Compound 277, N-[(1R,2R)-2-fluorocyclopropyl]{3-[(2R,4R)-2-methyltetrahydro-2H-pyran-4-yl]-12-cyano-3,5,8-triazatricyclo[7.4.0.0^2,6]trideca-1(13),2(6),4,7,9,11-hexaen-4-yl}acetamide], the IC50 on LRRK2 wild type enzyme was found to be 0.828 nM; in test [1] it was 52.2 nM.

For `C[C@@H]1C[C@H](n2c(CC(=O)NCC(C)(C)C#N)nc3cnc4ccc(C#N)cc4c32)CCO1` [Compound 239, N-(2-cyano-2-methylpropyl){3-[(2R,4R)-2-methyltetrahydro-2H-pyran-4-yl]-12-cyano-3,5,8-triazatricyclo[7.4.0.0^2,6]trideca-1(9),2(6),4,7,10,12-hexaen-4-yl}acetamide], the IC50 against LRRK2 wild type enzyme stood at 1.32 nM; in test [1] it was 169 nM.

With `Cc1cc(F)ncc1NC(=O)Cc1nc2cnc3ccc(C#N)cc3c2n1[C@@H]1CCO[C@H](C)C1` [Compound 205, N-(6-fluoro-4-methyl-3-pyridyl){3-[(2R,4R)-2-methyltetrahydro-2H-pyran-4-yl]-12-cyano-3,5,8-triazatricyclo[7.4.0.0^2,6]trideca-1,4,6,8,10,12-hexaen-4-yl}acetamide], the IC50 on LRRK2 wild type enzyme came out at 0.387 nM; in test [1], 11.1 nM.

Turning to `C[C@@H]1C[C@H](n2c(CC(=O)Nc3cccn(C)c3=O)nc3cnc4ccc(C#N)cc4c32)CCO1` [Compound 263, N-(1-methyl-2-oxo-1,2-dihydro-3-pyridyl){3-[(2R,4R)-2-methyltetrahydro-2H-pyran-4-yl]-12-cyano-3,5,8-triazatricyclo[7.4.0.0^2,6]trideca-1,4,6,8,10,12-hexaen-4-yl}acetamide], the half-inhibitory concentration (IC50) against LRRK2 wild type enzyme is 0.476 nM; in test [1], 8.93 nM.

For `C[C@@H]1C[C@H](n2c(CC(=O)Nc3cccn(CCO)c3=O)nc3cnc4ccc(C#N)cc4c32)CCO1` [Compound 225, N-[1-(2-hydroxyethyl)-2-oxo-1,2-dihydro-3-pyridyl]{3-[(2R,4R)-2-methyltetrahydro-2H-pyran-4-yl]-12-cyano-3,5,8-triazatricyclo[7.4.0.0^2,6]trideca-1,4,6,8,10,12-hexaen-4-yl}acetamide], the figures for the IC50 (at LRRK2 wild type enzyme; in test [1]) were 0.388 nM and 104 nM, respectively.

As for `C[C@@H]1C[C@H](n2c(CC(=O)NCC3CCC3)nc3cnc4ccc(C#N)cc4c32)CCO1` [Compound 89, 2-{8-cyano-1-[(2R,4R)-2-methyloxan-4-yl]-1H-imidazo[4,5-c]quinolin-2-yl}-N-(cyclobutylmethyl)acetamide], the IC50 is 0.589 nM at LRRK2 wild type enzyme and 34 nM in test [1].

As for `Cc1ncncc1NC(=O)Cc1nc2cnc3ccc(C#N)cc3c2n1[C@@H]1CCO[C@H](C)C1` [Compound 216, N-(4-methyl-5-pyrimidinyl){3-[(2R,4R)-2-methyltetrahydro-2H-pyran-4-yl]-12-cyano-3,5,8-triazatricyclo[7.4.0.0^2,6]trideca-1,4,6,8,10,12-hexaen-4-yl}acetamide], the IC50 against LRRK2 wild type enzyme came out at 0.422 nM; in test [1], 12.4 nM.

Take `C[C@@H]1C[C@H](n2c(CC(=O)NC3(C)CC3)nc3cnc4ccc(C#N)cc4c32)CCO1` [Compound 328, N-1-methylcyclopropyl{3-[(2R,4R)-2-methyltetrahydro-2H-pyran-4-yl]-12-cyano-3,5,8-triazatricyclo[7.4.0.0^2,6]trideca-1(9),2(6),4,7,10,12-hexaen-4-yl}acetamide]: the IC50 on LRRK2 wild type enzyme stood at 1.86 nM; in test [1], 54.7 nM.

Turning to `COCCn1cc(N2CC(c3nc4cnc5ccc(C#N)cc5c4n3[C@@H]3CCO[C@H](C)C3)CC2=O)cn1` (stereo partly drawn) [Compound 171, 2-{1-[1-(2-methoxyethyl)-1H-pyrazol-4-yl]-5-oxopyrrolidin-3-yl}-1-[(2R,4R)-2-methyloxan-4-yl]-1H-imidazo[4,5-c]quinoline-8-carbonitrile], the figures for the IC50 (on LRRK2 wild type enzyme; in test [1]) were 1.46 nM and 434 nM, respectively.

Consider `C[C@@H]1C[C@H](n2c(CN3CCCCC3=O)nc3cnc4ccc(C#N)cc4c32)CCO1` [Compound 79, 1-[(2R,4R)-2-methyloxan-4-yl]-2-[(2-oxopiperidin-1-yl)methyl]-1H-imidazo[4,5-c]quinoline-8-carbonitrile], for which the figures for the concentration for half-maximal inhibition (IC50) (at LRRK2 wild type enzyme; in test [1]) were 10.8 nM and 815 nM, respectively.
